What was measured:
Assay type in all cases: in vivo, human
[1] = test system: hypertensive subjects; experiment: ACTH stimulation testing / adrenocortical insufficiency
Description: 11-deoxycorticosterone levels were unaffected. […] Due to supply chain disruption, the ability to perform ACTH stimulation testing was limited during the first part of the trial. However, the majority of subjects in Part 2 dosed with 100 mg QD, the maximum dose tested, had ACTH-stimulation testing performed at Baseline and after 8 weeks of treatment.

[2] = test system: plasma renin activity; experiment: Plasma renin activity (PRA) (pharmacodynamic response); conditions: for Renin Activity, Mean (SD) Observed / Renin Activity, Mean (SD) Percent Change from Baseline: Part 1; for Renin Activity, Mean Observed / Renin Activity, Mean Percent Change from Baseline: Part 2
Source text: (§1) PK/PD Analysis Set includes all subjects in the SAF who have sufficient data available for the analysis of pharmacokinetic and pharmacodynamic measurements. In the analyses based on PKPD, subjects will be analyzed according to the actual treatment received.

[3] = test system: serum aldosterone; experiment: Serum aldosterone (pharmacodynamic response); conditions: for Reduction in median serum aldosterone compared to baseline: week 4, low renin subjects (Part-1); for Aldosterone levels, change relative to baseline, range across active arms / Aldosterone, Mean (SD) Observed / Aldosterone, Mean (SD) Percent Change from Baseline: Part 1; for Aldosterone, Mean Observed / Aldosterone, Mean Percent Change from Baseline: Part 2
Source text: as §1

[4] = test system: hypertensive subjects; experiment: Serum sodium; conditions: active treatment cohorts; Parts 1 and 2
[5] = test system: serum cortisol; experiment: Serum cortisol (pharmacodynamic response); conditions: for Serum cortisol percent change from baseline: 100 mg QD, Part 2; for Serum cortisol percent change from baseline, range across active arms: Part 1
Source text: as §1

CC(=O)N[C@H]1CC[C@H](NC(=O)CN2CCN(c3nncc(-c4ccc(C)cc4)n3)CC2)CC1 [Compound A HBr]
Adrenocortical insufficiency ([1]; during the trial, listed as lorundrostat): no adrenocortical insufficiency occurred
ACTH-stimulation results ([1]; majority of Part 2 subjects, 100 mg QD, Baseline and after 8 weeks): no individuals with abnormal ACTH-stimulation results
Renin Activity, Mean (SD) Observed ([2]; Wk 4, 12.5 mg BID): 5.989 (11.272) μg/L/hr
Renin Activity, Mean (SD) Percent Change from Baseline ([2]; Wk 4, 12.5 mg BID): 838.89 (2411.4) %
Renin Activity, Mean (SD) Observed ([2]; Wk 4, 12.5 mg QD): 1.804 (3.565) μg/L/hr
Renin Activity, Mean (SD) Percent Change from Baseline ([2]; Wk 4, 12.5 mg QD): 85.09 (291.65) %
Renin Activity, Mean (SD) Observed ([2]; Wk 4, 25 mg BID): 2.860 (4.219) μg/L/hr
Renin Activity, Mean (SD) Percent Change from Baseline ([2]; Wk 4, 25 mg BID): 344.07 (480.75) %
Renin Activity, Mean (SD) Observed ([2]; Wk 4, 50 mg QD): 3.940 (9.162) μg/L/hr
Renin Activity, Mean (SD) Percent Change from Baseline ([2]; Wk 4, 50 mg QD): 359.69 (888.86) %
Renin Activity, Mean (SD) Observed ([2]; Wk 4, 100 mg QD): 3.870 (6.308) μg/L/hr
Renin Activity, Mean (SD) Percent Change from Baseline ([2]; Wk 4, 100 mg QD): 489.18 (974.60) %
Renin Activity, Mean (SD) Observed ([2]; Wk 12, 12.5 mg BID): 5.118 (11.751) μg/L/hr
Renin Activity, Mean (SD) Percent Change from Baseline ([2]; Wk 12, 12.5 mg BID): 212.37 (402.15) %
Renin Activity, Mean (SD) Observed ([2]; Wk 12, 12.5 mg QD): 2.429 (5.048) μg/L/hr
Renin Activity, Mean (SD) Percent Change from Baseline ([2]; Wk 12, 12.5 mg QD): 137.45 (279.23) %
Renin Activity, Mean (SD) Observed ([2]; Wk 12, 25 mg BID): 2.898 (8.323) μg/L/hr
Renin Activity, Mean (SD) Percent Change from Baseline ([2]; Wk 12, 25 mg BID): 198.91 (423.17) %
Renin Activity, Mean (SD) Observed ([2]; Wk 12, 50 mg QD): 3.374 (7.008) μg/L/hr
Renin Activity, Mean (SD) Percent Change from Baseline ([2]; Wk 12, 50 mg QD): 400.07 (808.60) %
Renin Activity, Mean (SD) Observed ([2]; Wk 12, 100 mg QD): 1.653 (2.830) μg/L/hr
Renin Activity, Mean (SD) Percent Change from Baseline ([2]; Wk 12, 100 mg QD): 94.66 (221.58) %
Renin Activity, Mean Observed ([2]; Wk 4, 100 mg QD): 12.642 µg/L/h
Renin Activity, Mean Percent Change from Baseline ([2]; Wk 4, 100 mg QD): 811.54%
Renin Activity, Mean Observed ([2]; Wk 10, 100 mg QD): 7.602 µg/L/h
Renin Activity, Mean Percent Change from Baseline ([2]; Wk 10, 100 mg QD): 192.62%
Plasma renin activity, pharmacodynamic response ([2]; across doses): commensurate increase in plasma renin activity
Renin activity, percent change from baseline ([2]; irrespective of dose and baseline PRA, highest at Week 4): increased in all subjects treated with lorundrostat
Reduction in median serum aldosterone compared to baseline ([3]; 25 mg BID): 9.6%
Reduction in median serum aldosterone compared to baseline ([3]; 50 mg QD): 65.2%
Reduction in median serum aldosterone compared to baseline ([3]; 100 mg QD): 70.0%
Aldosterone levels, change relative to baseline, range across active arms ([3]; Week 4): −40.1% to 7.4%
Aldosterone levels, change relative to baseline, range across active arms ([3]; Week 12): −26.6% to 15.9%
Aldosterone, Mean (SD) Observed ([3]; Wk 4, 12.5 mg BID): 4.447 (3.681) ng/dL
Aldosterone, Mean (SD) Percent Change from Baseline ([3]; Wk 4, 12.5 mg BID): −37.86 (35.66) %
Aldosterone, Mean (SD) Observed ([3]; Wk 4, 12.5 mg QD): 6.132 (4.606) ng/dL
Aldosterone, Mean (SD) Percent Change from Baseline ([3]; Wk 4, 12.5 mg QD): 7.39 (91.87) %
Aldosterone, Mean (SD) Observed ([3]; Wk 4, 25 mg BID): 3.192 (3.274) ng/dL
Aldosterone, Mean (SD) Percent Change from Baseline ([3]; Wk 4, 25 mg BID): 1.66 (233.60) %
Aldosterone, Mean (SD) Observed ([3]; Wk 4, 50 mg QD): 3.923 (5.283) ng/dL
Aldosterone, Mean (SD) Percent Change from Baseline ([3]; Wk 4, 50 mg QD): −40.06 (70.25) %
Aldosterone, Mean (SD) Observed ([3]; Wk 4, 100 mg QD): 4.000 (4.252) ng/dL
Aldosterone, Mean (SD) Percent Change from Baseline ([3]; Wk 4, 100 mg QD): −32.18 (75.13) %
Aldosterone, Mean (SD) Observed ([3]; Wk 12, 12.5 mg BID): 6.765 (4.085) ng/dL
Aldosterone, Mean (SD) Percent Change from Baseline ([3]; Wk 12, 12.5 mg BID): 1.97 (66.85) %
Aldosterone, Mean (SD) Observed ([3]; Wk 12, 12.5 mg QD): 6.833 (4.743) ng/dL
Aldosterone, Mean (SD) Percent Change from Baseline ([3]; Wk 12, 12.5 mg QD): 15.91 (67.68) %
Aldosterone, Mean (SD) Observed ([3]; Wk 12, 25 mg BID): 4.983 (3.432) ng/dL
Aldosterone, Mean (SD) Percent Change from Baseline ([3]; Wk 12, 25 mg BID): −10.10 (66.83) %
Aldosterone, Mean (SD) Observed ([3]; Wk 12, 50 mg QD): 5.385 (4.087) ng/dL
Aldosterone, Mean (SD) Percent Change from Baseline ([3]; Wk 12, 50 mg QD): −3.75 (56.02) %
Aldosterone, Mean (SD) Observed ([3]; Wk 12, 100 mg QD): 4.563 (2.868) ng/dL
Aldosterone, Mean (SD) Percent Change from Baseline ([3]; Wk 12, 100 mg QD): −26.56 (37.55) %
Aldosterone, Mean Observed ([3]; Wk 4, 100 mg QD): 5.060 ng/dL
Aldosterone, Mean Percent Change from Baseline ([3]; Wk 4, 100 mg QD): −6.05%
Aldosterone, Mean Observed ([3]; Wk 10, 100 mg QD): 4.929 ng/dL
Aldosterone, Mean Percent Change from Baseline ([3]; Wk 10, 100 mg QD): −4.06%
Serum aldosterone levels, pharmacodynamic response ([3]; across doses): dose-dependent reduction in serum aldosterone levels
Serum sodium levels [4]: decreased
Serum cortisol percent change from baseline ([5]; Week 4): 20.1%
Serum cortisol percent change from baseline ([5]; Week 8): 153.4%
Serum cortisol percent change from baseline ([5]; Week 12): 1.5%
Serum cortisol percent change from baseline, range across active arms ([5]; Week 4): 3.8% to 19.2%
Serum cortisol percent change from baseline, range across active arms ([5]; Week 8): 20.6% to 51.4%

Source: patent US20260053811A1, “METHODS OF TREATING HYPERTENSION IN OBESE SUBJECTS” (Mineralys Therapeutics, Inc., priority 2022, published 2026)
